Test results as given in patent US20240383908A1, “SYNTHESIS AND APPLICATION OF PHOSPHATASE DEGRADER” (HINOVA PHARMACEUTICALS INC., priority 2021, published 2024).
Counter-ions that a name gives are not always drawn.

Target: T1, SHP2 protein (Homo sapiens, UniProt Q06124)
T1 sequence (Q06124 1-593): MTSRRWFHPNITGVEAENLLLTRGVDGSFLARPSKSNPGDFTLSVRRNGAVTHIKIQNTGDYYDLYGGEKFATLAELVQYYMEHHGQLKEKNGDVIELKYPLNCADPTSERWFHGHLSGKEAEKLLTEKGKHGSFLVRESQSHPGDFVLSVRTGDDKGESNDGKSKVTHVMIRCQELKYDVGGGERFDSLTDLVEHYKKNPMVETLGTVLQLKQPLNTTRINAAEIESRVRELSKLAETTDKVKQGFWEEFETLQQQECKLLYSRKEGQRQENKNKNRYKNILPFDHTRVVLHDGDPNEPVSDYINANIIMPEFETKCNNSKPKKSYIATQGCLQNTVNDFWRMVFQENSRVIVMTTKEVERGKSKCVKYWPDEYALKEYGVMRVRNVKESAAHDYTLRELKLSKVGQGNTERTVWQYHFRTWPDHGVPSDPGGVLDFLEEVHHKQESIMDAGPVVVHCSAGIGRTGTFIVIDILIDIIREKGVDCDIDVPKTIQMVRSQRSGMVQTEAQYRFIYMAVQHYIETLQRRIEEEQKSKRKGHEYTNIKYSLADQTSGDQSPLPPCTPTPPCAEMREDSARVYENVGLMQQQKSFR
Experiment: Degradation activity on SHP2 protein in MIA Paca-2 cells (Western blot, DC50)
Format: cell-based
Parameters: endogenous in cells; host or cells: MIA Paca-2 cells
Conditions: read-out: Degradation activity for differenct cell lines MIA Paca-2 (DC50)
Procedure: (1) MV-411 cells were cultured in the cell culture medium, and then well-growing cells were selected and inoculated in a 12-well plate, with 1 mL/well and 1×10^6 cells/well. The plate was incubated overnight in a 5% CO2 cell incubator at 37° C.
(2) 10 mM storage solution of each drug was prepared using dimethylsulfoxide (DMSO). The stock solution was diluted gradually with DMSO before use, and then 1 μL of the compound solution was added to the cell culture well (to ensure that the DMSO concentration in the culture system was […]), so that the final drug concentration is 100 nM, 10 nM, 3 nM, 1 nM, 0.3 nM, and 0.1 nM. Two wells were set for each concentration. The plate was gently shaken and mixed. Additionally, negative control wells (containing an equal amount of DMSO) and positive control wells were included.
(3) After 24 hours of cultivation, the cells were lysed using RIPA cell lysate, and the proteins were extracted. The protein concentration was measured using a BCA assay kit. 5× concentrated protein buffer was loaded, heated at 100° C. for 5 min, and then the sample was stored at −20° C.
(4) For each well, 30 μg of protein was loaded to polyacrylamide gel for electrophoresis.
(5) The protein was transferred from polyacrylamide gel to PVDF membrane, and sealed at room temperature with 5% skimmed milk for 1 h, which was then incubated with the primary antibodies (Anti-SHP2 rabbit mAb and Anti-GAPDH rabbit mAb) at 4° C. overnight. The membrane was washed three times with TBST solution, 10 minutes for each time. After that, the membrane was incubated with the secondary antibodies (horseradish peroxidase labeled goat anti-rabbit IgG) at room temperature for 2 h, and then washed three times with TBST solution, 10 minutes for each time, followed by exposure.
(6) The images were analyzed with Image J grayscale, and the degradation ratio of protein bands in the test group was calculated, based on the negative control group (DMSO) (100%).
(7) Using the Dose-response-inhibition equation in the data processing software GraphPad Prism 8, the DC50 value was obtained (which represents the drug concentration corresponding to 50% degradation of the target protein).
Using similar methods and different cell lines, the degradation activity of the compound according to the present invention on SHP2 protein of different cell lines was tested under suitable culture conditions.

DC50	Compound
< 100 nM	CC1(N)CCN(c2cnc(Sc3cccc(NC(=O)C4CC(N5CCC(N6CC=C(c7ccc(C(=O)NCc8ccc9c(c8)CN(C8CCC(=O)NC8=O)C9=O)nn7)CC6)CC5)C4)c3)cn2)CC1 (stereo not drawn) [Compound 296]
100 to 1000 nM	Cc1cc(C(=O)NCc2ccc3c(c2)CN(C2CCC(=O)NC2=O)C3=O)ncc1C1=CCN(C2CCN(c3ccc(C(=O)Nc4cccc(Sc5cnc(N6CCC(C)(N)CC6)cn5)c4)cc3C)CC2)CC1 (stereo not drawn) [Compound 456]
< 100 nM	CC1(N)CCN(c2cnc(Sc3cccc(NC(=O)c4ccc(N5CCC(N6CCN(c7ccc(C(=O)NCc8ccc9c(c8)CN(C8CCC(=O)NC8=O)C9=O)c(F)c7)CC6)CC5)c(F)c4)c3)cn2)CC1 (stereo not drawn) [Compound 503]
> 1000 nM	C[C@@H]1OCC2(CCN(c3cnc(Sc4cccc(NC(=O)c5ccc(CN6CCN(c7ccc8c(c7)CN(C7CCC(=O)NC7=O)C8=O)CC6)cc5)c4)cn3)CC2)[C@@H]1N (stereo partly drawn) [Compound 285]
< 100 nM	CC1(N)CCN(c2cnc(Sc3cccc(NC(=O)c4ccc(N5CCC(N6CCC(c7ccc(C(=O)NCc8ccc9c(c8)CN(C8CCC(=O)NC8=O)C9=O)cc7)C(F)C6)CC5)c(F)c4)c3)cn2)CC1 (stereo not drawn) [Compound 506]
< 100 nM	CC1(N)CCN(c2cnc(Sc3cccc(NC(=O)c4ccc(N5CCC(N6CC=C(c7ccc(C(=O)NCc8ccc9c(c8)CN(C8CCC(=O)NC8=O)C9=O)nc7)CC6)CC5)c(F)c4)c3)cn2)CC1 (stereo not drawn) [Compound 295, hydrochloride]
100 to 1000 nM	C[C@@H]1OCC2(CCN(c3cnc(Sc4cccc(NCc5ccc(N6CCC(N7CC=C(c8ccc(C(=O)NCc9ccc%10c(c9)CN(C9CCC(=O)NC9=O)C%10=O)nc8Cl)CC7)CC6)c(F)c5)c4)cn3)CC2)[C@@H]1N (stereo partly drawn) [Compound 518]
< 100 nM	CC1(N)CCN(c2cnc(Sc3cccc(NC(=O)c4ccc(N5CCC(N6CCC(c7ccc(C(=O)NCc8ccc9c(c8)CN(C8CCC(=O)NC8=O)C9=O)nc7)CC6)CC5)cc4)c3)cn2)CC1 (stereo not drawn) [Compound 372]
> 1000 nM	COC(=O)NC1(C)CCN(c2cnc(Sc3cccc(NC(=O)c4ccc(N5CCC(N6CC=C(c7ccc(C(=O)NCc8ccc9c(c8)CN(C8CCC(=O)NC8=O)C9=O)nc7)CC6)CC5)c(F)c4)c3)cn2)CC1 (stereo not drawn) [Compound 424]
< 100 nM	Cc1cc(C(=O)Nc2cccc(Sc3cnc(N4CCC(C)(N)CC4)cn3)c2)ccc1N1CCC(N2CCN(c3nnc(C(=O)NCc4ccc5c(c4)CN(C4CCC(=O)NC4=O)C5=O)cc3Cl)CC2)CC1 (stereo not drawn) [Compound 507]
> 1000 nM	C[C@@H]1OCC2(CCN(c3cnc(Sc4cccc(NC(=O)CCCN5CCN(c6ccc(C(=O)NCc7ccc8c(c7)C(=O)N(C7CCC(=O)NC7=O)C8)nn6)CC5)c4)cn3)CC2)[C@@H]1N (stereo partly drawn) [Compound 262]
> 1000 nM	CC1(N)CCN(c2cnc(Sc3cccc(NC(=O)c4cc(N5CCC(N6CC=C(c7ccc(C(=O)NCc8ccc9c(c8)CN(C8CCC(=O)NC8=O)C9=O)nn7)CC6)CC5)cs4)c3)cn2)CC1 (stereo not drawn) [Compound 404]
> 1000 nM	CC1(N)CCN(c2cnc(Sc3cccc(NC(=O)c4ccc(C5=CCC(N6CC=C(c7ccnc(C(=O)NCc8ccc9c(c8)CN(C8CCC(=O)NC8=O)C9=O)c7)C6)CC5)c(F)c4)c3)cn2)CC1 (stereo not drawn) [Compound 416]
< 100 nM	C[C@@H]1OCC2(CCN(c3cnc(Sc4cccc(NC(=O)c5ccc(N6CCC(N7CCC(c8ccc(C(=O)NCc9ccc%10c(c9)CN(C9CCC(=O)NC9=O)C%10=O)cc8)C(F)C7)CC6)c(F)c5)c4)cn3)CC2)[C@@H]1N (stereo partly drawn) [Compound 510]
< 100 nM	CC1(N)CCN(c2cnc(Sc3cccc(NC(=O)c4ccc(C5=CCC(N6CC=C(c7ccc(C(=O)NCc8ccc9c(c8)CN(C8CCC(=O)NC8=O)C9=O)nn7)CC6)CC5)cc4)c3)cn2)CC1 (stereo not drawn) [Compound 309]
> 1000 nM	CC1(N)CCN(c2cnc(Sc3cccc(NC(=O)C4CC5(C4)CC(N4CC=C(c6ccc(C(=O)NCc7ccc8c(c7)CN(C7CCC(=O)NC7=O)C8=O)nn6)CC4)C5)c3)cn2)CC1 (stereo not drawn) [Compound 311]
> 1000 nM	CC1(N)CCN(c2cnc(Sc3cccc(N4CCC(CN5CCN(c6ccc7c(c6)CN(C6CCC(=O)NC6=O)C7=O)CC5)CC4)c3)cn2)CC1 (stereo not drawn) [Compound 341]

DC50	Compound
< 100 nM	CC1(N)CCN(c2cnc(Sc3cccc(NC(=O)c4ccc(N5CCC(N6CCN(c7ccc(C(=O)NCc8ccc9c(c8)CN(C8CCC(=O)NC8=O)C9=O)nc7)CC6)CC5)nn4)c3)cn2)CC1 (stereo not drawn) [Compound 450]
> 1000 nM	Cc1cc(C2=CCN(C3CCN(c4ccc(C(=O)Nc5cccc(Sc6cnc(N7CCC8(CC7)CO[C@@H](C)[C@H]8N)cn6)c5)cc4F)CC3)CC2)cnc1C(=O)NCc1ccc2c(c1)CN(C1CCC(=O)NC1=O)C2=O (stereo partly drawn) [Compound 462]
< 100 nM	CC1(N)CCN(c2cnc(Sc3cccc(NC(=O)c4ccc(N5CCC(N6CCN(c7ccc(C(=O)NCc8ccc9c(c8)CN(C8CCC(=O)NC8=O)C9=O)c(F)c7)CC6)CC5)cc4)c3)cn2)CC1 (stereo not drawn) [Compound 502]
< 100 nM	CC1(N)CCN(c2cnc(Sc3cccc(NC(=O)c4ccc(N5CCC(N6CC=C(c7ncc(C(=O)NCc8ccc9c(c8)CN(C8CCC(=O)NC8=O)C9=O)cc7C(F)(F)F)CC6)CC5)cc4)c3)cn2)CC1 (stereo not drawn) [Compound 359]
> 1000 nM	C[C@@H]1OCC2(CCN(c3cnc(Sc4cccc(NC(=O)[C@H]5C[C@@H]5c5ccc(N6CCN(c7ccc(C(=O)NCc8ccc9c(c8)CN(C8CCC(=O)NC8=O)C9=O)nn7)CC6)c(F)c5)c4)cn3)CC2)[C@@H]1N (stereo partly drawn) [Compound 282]
> 1000 nM	CC1(N)CCN(c2cnc(Sc3cccc(NC(=O)C4CC45CCC(N4CC=C(c6ccc(C(=O)NCc7ccc8c(c7)CN(C7CCC(=O)NC7=O)C8=O)nc6)CC4)CC5)c3)cn2)CC1 (single isomer, unassigned) [Compound 315]
100 to 1000 nM	Cc1cc(N2CCC(N3CC=C(c4ccc(C(=O)NCc5ccc6c(c5)CN(C5CCC(=O)NC5=O)C6=O)cc4)CC3)CC2)ccc1C(=O)Nc1cccc(Sc2cnc(N3CCC(C)(N)CC3)cn2)c1 (stereo not drawn) [Compound 454]
< 100 nM	CC1(N)CCN(c2cnc(Sc3cccc(NC(=O)c4ccc(N5CCC(N6CCN(c7cnc(C(=O)NCc8ccc9c(c8)CN(C8CCC(=O)NC8=O)C9=O)cc7Cl)CC6)CC5)cc4)c3)cn2)CC1 (stereo not drawn) [Compound 508]
< 100 nM	Cc1cc(N2CCC(N3CC=C(c4ccc(C(=O)NCc5ccc6c(c5)CN(C5CCC(=O)NC5=O)C6=O)nc4Cl)CC3)CC2)ccc1C(=O)Nc1cccc(Sc2cnc(N3CCC(C)(N)CC3)cn2)c1 (stereo not drawn) [Compound 444]
> 1000 nM	CC1(N)CCN(c2cnc(Sc3cccc(NC(=O)c4ccc(N5CCC(C(=O)N6CCN(c7ccc8c(c7)CN(C7CCC(=O)NC7=O)C8=O)CC6)CC5)c(F)c4)c3)cn2)CC1 (stereo not drawn) [Compound 335]
100 to 1000 nM	C[C@@H]1OCC2(CCN(c3cnc(Sc4cccc(NC(=O)c5ccc(N6CCC(N7CC=C(c8ccc(C(=O)NCc9ccc%10c(c9)CN(C9CCC(=O)NC9=O)C%10=O)c(Cl)c8)CC7)CC6)c(F)c5)c4)cn3)CC2)[C@@H]1N (stereo partly drawn) [Compound 479]
< 100 nM	CC1(N)CCN(c2cnc(Sc3cccc(NC(=O)c4ccc(N5CCC(N6CC=C(C7CCC(C(=O)NCc8ccc9c(c8)CN(C8CCC(=O)NC8=O)C9=O)CC7)CC6)CC5)c(F)c4)c3)cn2)CC1 (stereo not drawn) [Compound 511]
> 1000 nM	C[C@@H]1OCC2(CCN(c3cnc(Sc4cccc(NCc5ccc(CN6CCN(c7ccc8c(c7)CN(C7CCC(=O)NC7=O)C8=O)CC6)cc5)c4)cn3)CC2)[C@@H]1N (stereo partly drawn) [Compound 255]
< 100 nM	CC1(N)CCN(c2cnc(Sc3cccc(NC(=O)c4ccc(C5=CCC(N6CC=C(c7ccc(C(=O)NCc8ccc9c(c8)CN(C8CCC(=O)NC8=O)C9=O)nc7)CC6)CC5)cc4)c3)cn2)CC1 (stereo not drawn) [Compound 307]
> 1000 nM	C[C@@H]1OCC2(CCN(c3cnc(Sc4cccc(NC(=O)c5ccc(N6CCC(N7CCN(c8ccc9c(c8)CN(C8CCC(=O)NC8=O)C9=O)CC7)CC6)c(F)c5)c4)cn3)CC2)[C@@H]1N (stereo partly drawn) [Compound 280]
> 1000 nM	CC1(N)CCN(c2cnc(Sc3cccc(NCc4ccc(N5CCN(c6ccc(C(=O)NCc7ccc8c(c7)C(=O)N(C7CCC(=O)NC7=O)C8)nn6)CC5)c(F)c4)c3)cn2)CC1 (stereo not drawn) [Compound 258]
